The values below come from patent US9464084B2, “P2X7 modulators” (Janssen Pharmaceutica NV, priority 2013, dated 2016).

In this experiment the target is P2X7 (Homo sapiens (Human), UniProt Q99572). Nature of the experiment: P2X7 antagonism in human PBMCs (LPS + Bz-ATP induced IL-1β release, ELISA).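 On all read-outs here: PBMCs from donor human blood, with a further 1.5 h incubation of the cells in the assay.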 In kind it is cell-based. The note with it: LPS 30 ng/ml, Bz-ATP 0.5 mM; for PBMC 10 μM (% control): compound 10 μM; for PBMC 1 μM (% control): compound 1 μM. (In general: An ELISA detects its analyte on a solid surface through an enzyme-linked reagent.)

Structures are written as SMILES.

Sequence of P2X7 (Q99572 whole entry): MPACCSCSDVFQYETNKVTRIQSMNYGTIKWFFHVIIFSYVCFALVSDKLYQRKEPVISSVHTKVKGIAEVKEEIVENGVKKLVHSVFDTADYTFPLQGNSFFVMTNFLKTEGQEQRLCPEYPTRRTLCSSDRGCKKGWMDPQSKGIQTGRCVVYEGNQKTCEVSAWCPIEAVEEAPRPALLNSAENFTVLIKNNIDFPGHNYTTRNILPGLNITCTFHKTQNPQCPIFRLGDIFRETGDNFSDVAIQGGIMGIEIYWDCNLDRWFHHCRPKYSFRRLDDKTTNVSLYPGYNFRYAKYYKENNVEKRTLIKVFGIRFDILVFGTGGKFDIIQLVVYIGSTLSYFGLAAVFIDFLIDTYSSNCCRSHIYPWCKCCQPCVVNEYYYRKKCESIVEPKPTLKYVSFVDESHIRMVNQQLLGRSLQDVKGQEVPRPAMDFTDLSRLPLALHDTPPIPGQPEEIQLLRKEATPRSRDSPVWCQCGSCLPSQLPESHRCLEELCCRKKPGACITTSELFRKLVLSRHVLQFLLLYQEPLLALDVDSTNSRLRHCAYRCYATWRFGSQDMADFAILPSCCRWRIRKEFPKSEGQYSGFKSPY

On to `C[C@@H]1c2ncn(-c3ccc(F)cn3)c2CCN1C(=O)c1cccc(C(F)(F)F)c1Cl` (single isomer, unassigned) [Example 40, (R*)-(2-chloro-3-(trifluoromethyl)phenyl)(1-(5-fluoropyridin-2-yl)-4-methyl-6,7-dihydro-1H-imidazo[4,5-c]pyridin-5(4H)-yl)methanone], for which the “PBMC 10 μM (% control)” value amounted to 36.5 % control.
Same read-out and setting: then `C[C@@H]1c2ncn(-c3ccccn3)c2CCN1C(=O)c1cccc(C(F)(F)F)c1F` (single isomer, unassigned) [Example 42, (4R*)-5-{[2-Fluoro-3-(trifluoromethyl)phenyl]carbonyl}-4-methyl-1-pyridin-2-yl-4,5,6,7-tetrahydro-1H-imidazo[4,5-c]pyridine], with 5.8 % control; and `C[C@H]1c2ncn(-c3ccccn3)c2CCN1C(=O)c1cccc(C(F)(F)F)c1F` (single isomer, unassigned) [Example 43, (4 S*)-5-{[2-Fluoro-3-(trifluoromethyl)phenyl]carbonyl}-4-methyl-1-pyridin-2-yl-4,5,6,7-tetrahydro-1H-imidazo[4,5-c]pyridine], with 77.8 % control; and `C[C@@H]1c2ncn(-c3ccccn3)c2CCN1C(=O)c1cccc(C(F)(F)F)c1Cl` (single isomer, unassigned) [Example 44, (4R*)-5-{[2-Chloro-3-(trifluoromethyl)phenyl]carbonyl}-4-methyl-1-pyridin-2-yl-4,5,6,7-tetrahydro-1H-imidazo[4,5-c]pyridine], with 44.7 % control.
Still for that read-out and setting: then `C[C@H]1c2ncn(-c3ccccn3)c2CCN1C(=O)c1cccc(C(F)(F)F)c1Cl` (single isomer, unassigned) [Example 45, (4 S*)-5-{[2-Chloro-3-(trifluoromethyl)phenyl]carbonyl}-4-methyl-1-pyridin-2-yl-4,5,6,7-tetrahydro-1H-imidazo[4,5-c]pyridine], with 29.4 % control.
`C[C@@H]1c2ncn(-c3ccc(F)cc3)c2CCN1C(=O)c1cccc(C(F)(F)F)c1Cl` (single isomer, unassigned) [Example 46, (4R*)-5-{[2-Chloro-3-(trifluoromethyl)phenyl]carbonyl}-1-(4-fluorophenyl)-4-methyl-4,5,6,7-tetrahydro-1H-imidazo[4,5-c]pyridine]: the “PBMC 10 μM (% control)” value is on record as 2.1 % control.
On the same count and under the same terms, as for `C[C@H]1c2ncn(-c3ccc(F)cc3)c2CCN1C(=O)c1cccc(C(F)(F)F)c1Cl` (single isomer, unassigned) [Example 47], the figure is −1.1 % control.
`C[C@@H]1c2nnn(-c3cnccn3)c2CCN1C(=O)c1cccc(C(F)(F)F)c1Cl` (single isomer, unassigned) [Example 74, (4R*)-5-{[2-Chloro-3-(trifluoromethyl)phenyl]carbonyl}-4-methyl-1-pyrazin-2-yl-4,5,6,7-tetrahydro-1H-[1,2,3]triazolo[4,5-c]pyridine]: the “PBMC 1 μM (% control)” value was found to be 102.6 % control.
As to `C[C@H]1c2nnn(-c3cnccn3)c2CCN1C(=O)c1cccc(C(F)(F)F)c1Cl` (single isomer, unassigned) [Example 75, (4 S*)-5-{[2-Chloro-3-(trifluoromethyl)phenyl]carbonyl}-4-methyl-1-pyrazin-2-yl-4,5,6,7-tetrahydro-1H-[1,2,3]triazolo[4,5-c]pyridine], the “PBMC 1 μM (% control)” value is on record as 5.2 % control and the “PBMC 10 μM (% control)” value is on record as −0.3 % control.
As to `C[C@H]1c2nnn(-c3ncccn3)c2CCN1C(=O)c1cccc(C(F)(F)F)c1Cl` (single isomer, unassigned) [Example 87, (4S*)-5-{[2-Chloro-3-(trifluoromethyl)phenyl]carbonyl}-4-methyl-1-pyrimidin-2-yl-4,5,6,7-tetrahydro-1H-[1,2,3]triazolo[4,5-c]pyridine], the “PBMC 10 μM (% control)” value is 21.7 % control.
On the same count and under the same terms, then `CC1c2nnn(-c3ncccn3)c2CCN1C(=O)c1cccc(C(F)(F)F)c1Cl` (single isomer, unassigned) [Example 88, (4R*)-5-{[2-Chloro-3-(trifluoromethyl)phenyl]carbonyl}-4-methyl-1-pyrimidin-2-yl-4,5,6,7-tetrahydro-1H-[1,2,3]triazolo[4,5-c]pyridine], with 13.3 % control; and `C[C@H]1Cc2c(nnn2-c2ccccn2)CN1C(=O)c1cccc(C(F)(F)F)c1Cl` (single isomer, unassigned) [Example 118, 5-{[2-Chloro-3-(trifluoromethyl)phenyl]carbonyl}-(S*)-6-methyl-1-pyridin-2-yl-4,5,6,7-tetrahydro-1H-[1,2,3]triazolo[4,5-c]pyridine], with 12.6 % control; and `C[C@@H]1Cc2c(nnn2-c2ccccn2)CN1C(=O)c1cccc(C(F)(F)F)c1Cl` (single isomer, unassigned) [Example 119, 5-{[2-Chloro-3-(trifluoromethyl)phenyl]carbonyl}-(R*)-6-methyl-1-pyridin-2-yl-4,5,6,7-tetrahydro-1H-[1,2,3]triazolo[4,5-c]pyridine], with 20.0 % control.
Still for that read-out and setting: then `C[C@@H]1c2nnn(-c3cc[nH]n3)c2CCN1C(=O)c1cccc(C(F)(F)F)c1Cl` (single isomer, unassigned) [Example 133, (R*)-(2-Chloro-3-(trifluoromethyl)phenyl)(4-methyl-1-(1H-pyrazol-5-yl)-6,7-dihydro-1H-[1,2,3]triazolo[4,5-c]pyridin-5(4H)-yl)methanone], with −0.2 % control; and `C[C@H]1c2nnn(-c3ccn[nH]3)c2CCN1C(=O)c1cccc(C(F)(F)F)c1Cl` (single isomer, unassigned) [Example 134, (S*)-(2-Chloro-3-(trifluoromethyl)phenyl)(4-methyl-1-(1H-pyrazol-5-yl)-6,7-dihydro-1H-[1,2,3]triazolo[4,5-c]pyridin-5(4H)-yl)methanone], with 12.3 % control; and `C[C@@H]1c2nnn(-c3cnccn3)c2CCN1C(=O)c1ccc(F)c(Cl)c1Cl` (single isomer, unassigned) [Example 143, (R*)-(2,3-Dichloro-4-fluorophenyl)(4-methyl-1-(pyrazin-2-yl)-6,7-dihydro-1H-[1,2,3]triazolo[4,5-c]pyridin-5(4H)-yl)methanone], with 58.0 % control.
Consider `C[C@H]1c2nnn(-c3cnccn3)c2CCN1C(=O)c1ccc(F)c(Cl)c1Cl` (single isomer, unassigned) [Example 144, (S*)-(2,3-Dichloro-4-fluorophenyl)(4-methyl-1-(pyrazin-2-yl)-6,7-dihydro-1H-[1,2,3]triazolo[4,5-c]pyridin-5(4H)-yl)methanone], for which the “PBMC 10 μM (% control)” value amounted to 19.6 % control.
With `C[C@@H]1c2nnn(-c3cc(F)ccn3)c2CCN1C(=O)c1cccc(C(F)(F)F)c1Cl` (single isomer, unassigned) [Example 148, (R*)-(2-Chloro-3-(trifluoromethyl)phenyl)(1-(4-fluoropyridin-2-yl)-4-methyl-6,7-dihydro-1H-[1,2,3]triazolo[4,5-c]pyridin-5(4H)-yl)methanone], the “PBMC 10 μM (% control)” value is listed as −9.6 % control.
